Measurements: patent US5573772A, “Methods for protecting tissues and organs from ischemic damage” (priority 1994, dated 1996)
“Also recorded” adds a separate entry of the source.

Test system: isolated rabbit hearts
Test: Hemodynamic responses (heart rate, coronary flow, LVDP, AV conduction) in isolated perfused rabbit hearts, Example 1
Set-up: species or system rabbit (New Zealand white)
Conditions: for Hemodynamics, treatment alone: SPT or DPCPX alone
Protocol: These solutions were then diluted in Krebs buffer to the final concentration just before the experiments started. New Zealand white rabbits of either sex, between 1.4-2.4 kg, were anesthetized with intravenous sodium pentobarbital (30 mg/kg). The neck was opened and a tracheotomy was performed. The rabbits were ventilated with 100% oxygen via a positive pressure respirator (MD industries, Mobile, Ala.). Ventilation rate was 30-35 breaths per minute, and tidal volume was approximately 15 ml. A left thoracotomy was performed in the fourth intercostal space and pericardium was opened to expose the heart. A 2-0 silk suture with an RB taper needle was passed around a branch of the left coronary artery, and the end of the silk were threaded through a small vinyl tube to form a snare. The heads were quickly excised and mounted on a Langendorff apparatus and perfused at constant pressure with Krebs buffer containing (in mM) 118.5 NaCl, 4.7 KCl, 1.2 MgSO4, 1.2 K2 PO4, 24.3 NaHCO3, 2.5 CaCl2 and 10 glucose. […] The temperature of the perfusate was maintained at 37° C. The perfusion pressure was kept at 75 mm Hg. Pacing electrodes were placed on the right atrium and all hearts were paced at 200 beats/minute with pulses of 5 volts and 4 msec duration to keep the heart rate constant. A fluid-filled latex balloon connected to a transducer via PE240 tubing was inserted into the left ventricle. Balloon volume was adjusted to set the left ventricular diastolic pressure at 10 mm Hg at the beginning of the experiment. Total coronary artery flow was measured by timed collection of buffer from the chamber into a graduated cylinder. Regional ischemia was effected by pulling the snare tight and clamping the tube with a hemostat. Global ischemia was performed by clamping the inflow tubing of the Langendorff apparatus. Reperfusion was achieved by releasing the restriction. All hearts were allowed to equilibrate for 20 minutes before the experiments were started. Heart rate (HR), coronary flow (CF) and left ventricular developed pressure (LVDP) were recorded at the point just before and at the end of each treatment with the pacing momentarily turned off. The animals were divided into 10 groups. The hearts in all groups were subjected to 30 minutes of coronary branch occlusion followed by 120 minutes of reperfusion. Control group (CON, n=10) only experienced the above-mentioned 30 minutes of regional ischemia while the preconditioned group (PC, n=12) received an additional 5 minutes of global ischemia plus 10 minutes of reperfusion prior to the 30 minute occlusion. In the adenosine group (ADO, n=6) and the APNEA group (APNEA, n=5), the hearts were exposed to 10 uM adenosine and 50 nM APNEA respectively, for 5 minutes as a substitute for ischemic preconditioning. The drug was allowed to washout for 10 minutes before the 30 minute ischemia was started. In groups receiving SPT, the blocker was included in the perfusate for 15 minutes at 100 uM starting 5 minutes before the exposure of ADO (ADO-SPT group, n=6) or APNEA (APNEA-SPT group, n=5) or 5 minutes before and after 5 minutes of preconditioning ischemia (PC-SPT group, n=5). […] All results are expressed as group mean±SEM. The differences among groups was determined by a one-way analysis of variance with a Newman-Keuls post hoc test. A value of p<0.05 was considered to be significant. In order to ensure that the adenosinergic agents were active at the concentrations employed, hemodynamic responses were measured in a separate group of animals who experienced similar surgery described above except the coronary snare was not installed and therefore the second group of animals were not exposed to ischemia. The hearts were quickly excised and mounted on the Langendorff apparatus and perfused with Krebs buffer. The depressant effect of adenosine on atrioventricular (AV) conduction time was measured at a constant rate of atrial pacing, as an index of A 1-mediated activity. […]

Q: How did the “HR and CF effects of ADO after washout” value (10 minutes of washout) turn out when `Nc1ncnc2c1ncn2[C@@H]1O[C@H](CO)[C@@H](O)[C@H]1O` [ADO, Adenosine] was run?
A: completely disappeared

Q: And the “Coronary flow (CF) after infusion” value (ADO 10 uM, 5 minutes, increased from 7.6±0.6 ml/g/min)?
A: 10.3 ± 0.8 mL/g/min

Q: And the “Heart rate (HR) after infusion” value (ADO 10 uM, 5 minutes, significantly decreased from 176±8 beats/min)?
A: 149±6 beats/minutes

Q: How did the “Alteration of HR, CF or LVDP” value (APNEA 50 nM) turn out when `Nc1ccc(CCNc2ncnc3c2ncn3[C@@H]2O[C@H](CO)[C@@H](O)[C@H]2O)cc1` [APNEA, N^6-(2-(4-aminophenyl)ethyl) adenosine] was run?
A: did not significantly alter HR, CF or LVDP

Q: And the “Activation of A1 or A2 adenosine receptors” value (APNEA 50 nM, inferred from hemodynamics)?
A: neither the A1 nor A2 adenosine receptors are activated

Q: For `CCCn1c(=O)c2[nH]c(C3CCCC3)nc2n(CCC)c1=O` [DPCPX, 8-cyclopentyl-1,3-dipropylxanthine], which “Blockade of adenosine's effect on heart rate” value (DPCPX 200 nM vs ADO) is on record?
A: eliminated the decrease in HR; also recorded: entirely blocked; also recorded: completely blocked

Q: And the “Effect on increase in CF from ADO infusion” value (DPCPX 200 nM vs ADO)?
A: did not affect the increase in CF

Q: And the “Hemodynamics, treatment alone” value?
A: only slightly affected

Q: What does the source list for `Cn1c(=O)c2[nH]c(-c3ccc(S(=O)(=O)O)cc3)nc2n(C)c1=O` [SPT, 8-(p-Sulfophenyl)-theophylline]?
A: Blockade of CF increase from ADO infusion (SPT 100 uM vs ADO): abolished; Blockade of HR decrease from ADO infusion (SPT 100 uM vs ADO): abolished; Hemodynamics, treatment alone: only slightly affected
